# Legend:
# Aβ42 = target: T1, Aβ42 (Homo sapiens, UniProt P05067); assay: Chemical kinetics analysis of Aβ42 aggregation profiles (rate constants); format: biochemical; details: 2 μM Aβ42; increasing compound concentrations
# T1 construct: […]; made in house; host or cells: E. coli BL21 Gold (DE3)
# Excerpt: The time evolution of the total fibril mass concentration is described as a function only of the initial conditions and the rate constants of the system by the integrated rate law given by Eq. (54) in Cohen et al., J Chem Phys 135, 065106, 2011.
# These are related to the rate of formation of new aggregates through primary pathways λ=√{square root over (2k+knm(0)^n^c)} and through secondary pathways κ=√{square root over (2k+k2m(0)^n^2^+1)}, where the initial concentration of soluble monomers is denoted by m(0), nc and n2 describe the dependencies of the primary and secondary pathways on the monomer concentration (nc=n2=2 for Aβ42), and kn, k+ and k2 are the rate constants of the primary nucleation, elongation and secondary nucleation, respectively (Cohen et al., Proc Natl Acad Sci USA, 110(24), 9758-63, 2013). […]
# A quantitative analysis was carried out on the effects of the molecules by matching the experimental aggregation profiles to kinetic curves calculated using the rate laws derived from a master equation that relates the time evolution of fibril formation to the rate constants of the different microscopic events. In this approach, the aggregation profiles in the presence of an inhibitor are described by introducing into the rate laws suitable perturbations to each of the microscopic rate constants evaluated in the absence of the inhibitor. […]
# [1] = system: CL2355 (Aβ1-42Neur worms); assay: Chemotaxis assay, Aβ1-42Neur worms; format: in vivo, C. elegans; details: 5 μM; 5 days at 24° C.; day 6 of adulthood; compared to untreated worms
# Protocol: Chemotaxis measurements were carried out as previously described (O. Margie, C. Palmer, I. Chin-Sang, C. elegans Chemotaxis Assay. J Vis Exp, e50069 (2013)) and as illustrated in FIG. 6C. Briefly, adult synchronized transgenic C. elegans CL2355 worms and wild-type healthy worms were incubated with or without 5 μM Netoglitazone for 5 days 24° C. At day 6 of adulthood the worms were then collected, washed with M9 buffer three times, and assayed in 9 cm screening plates (1.9% agar, 1 mM CaCl2, 1 mM MgSO4, and 25 mM phosphate buffer, pH 6.0) seeded with 50 μl of a 10× culture of Op50 Bacteria or sterile water, as attractant or test conditions, respectively and in combination with 1 μl of 1M Levamisole. Ca. 200 worms were placed in the central quadrant of the plate and incubated at 24° C. for 8 h, after which the chemotaxis index (CI) was scored. The CI was defined as follows (O. Margie et al (2013)):
# (number of worms at the attractant locations−number of worms at the control locations)/total number of worms on the plate
# Worms that were remaining in the central quadrant were excluded.
# GMC101 (Aβ worms) = assay: NIAD-4 plaque staining in living Aβ worms; format: in vivo, C. elegans
# Protocol: Plaques staining was carried out as previously described (J. Habchi et al. (2016); M. Perni et al., A natural product inhibits the initiation of α-synuclein aggregation & suppresses its toxicity. Proc. Natl. Acad. Sci. U.S.A. 114, E1009-E1017 (2017)). Briefly, live transgenic animals were incubated with NIAD-4 over a range of concentrations and times, with 1 μM NIAD-4 (0.1% DMSO in M9 buffer) for 4 hours at room temperature. After staining, animals were allowed to recover on NGM plates for about 24 hours to allow destaining via normal metabolism. Stained animals were mounted on 2% agarose pads containing 40 mM NaN3 as anaesthetic on glass microscope slides for imaging. Images were captured with a Zeiss Axio Observer D1 fluorescence microscope (Carl Zeiss Microscopy GmbH) with a 20× objective and a 49004 ET-CY3/TRITC filter (Chroma Technology Corp). Fluorescence intensity was calculated using ImageJ software (National Institutes of Health) and then normalized as the corrected total cell fluorescence. Only the head region was considered because of the high background signal in the guts. All experiments were carried out in triplicate, and the data from one representative experiment are shown. Statistical significance was determined using t tests.
# [2] = system: CL2355 (Aβ1-42Neur worms); assay: Automated motility assay, Aβ1-42Neur worms; format: in vivo, C. elegans; details: compared to untreated worms
# Protocol: Briefly, Netoglitazone stocks (5 mM in 100% DMSO) were used at an appropriate concentration to seed 9-cm NGM plates. Plates were then placed in a laminar flow hood at room temperature (22° C.) for up to 4 hours to dry. C. elegans cultures were then transferred onto media seeded with compound as L4 stage or Day 3 for late treatments and incubated at 24° for the whole experiment. Experiments were carried out at different Netoglitazone concentrations ranging from 0.05 to 500 μM in 1% DMSO. As controls, plates seeded only with 1% DMSO were used.
# All C. elegans populations were cultured at 20° C. and developmentally synchronized from a 4 h egg-lay. At 64-72 h post-egg-lay (time zero), individuals were transferred to FUDR plates, and body movements were assessed over the times indicated. At different ages, the animals were washed off the plates with M9 buffer and spread over an OP-50 unseeded 9 cm plate, after which their movements were recorded at 20 fps using a recently developed microscopic procedure (M. Perni et al., Massively parallel C. elegans tracking provides multi-dimensional fingerprints for phenotypic discovery. J. Neurosci. Methods. 306, 57-67 (2018)) for 1 min. Up to 600 animals were counted in each experiment in duplicate unless stated otherwise. […]
# T1 sequence (P05067 671-713): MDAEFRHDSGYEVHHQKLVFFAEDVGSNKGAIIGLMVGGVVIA
smiles,measurement,setting,value
O=C1NC(=O)C(Cc2ccc3cc(OCc4ccccc4F)ccc3c2)S1 (centres unmarked) [Netoglitazone],effect on rate constants of primary (knk+) and secondary (k2k+) pathways,Aβ42,can affect both nucleation pathways
same,chemotaxis index,[1],significantly improved
same,plaques load (NIAD-4 fluorescence),"GMC101 (Aβ worms); 0.5 μM, treatment at L4, day 6 of adulthood",significantly decrease the plaques load
same,plaques load after late administration,"GMC101 (Aβ worms); administered at D3 of adulthood, measured at D6",significant decrease of the plaques load
same,motility of Aβ1-42Neur worms,[2],significantly improves the motility

# Source: patent US20210145802A1, “THERAPY FOR OPHTHALMOLOGICAL CONDITIONS” (WREN THERAPEUTICS LIMITED, priority 2018, published 2021)
